Experimental data as given in patent US20240150286A1, “PEROXISOME PROLIFERATOR-ACTIVATED RECEPTOR GAMMA (PPARy) LIGANDS AND METHODS OF USE AS TREATMENTS FOR INSULIN RESISTANCE, OBESITY, FATTY LIVER DISEASE, AND TYPE 2 DIABETES” (The Board of Regents of the University of Oklahoma, priority 2022, published 2024).

Key:
[1] = target: T1, PPARγ ligand-binding domain (LBD) (Homo sapiens, UniProt P37231); assay: In vitro competition binding assay (PolarScreen PPARγ-Competitor, fluorescence polarization)
T1 construct: purchased Thermo Fisher Scientific
T1 sequence (P37231 238-503 limits assumed): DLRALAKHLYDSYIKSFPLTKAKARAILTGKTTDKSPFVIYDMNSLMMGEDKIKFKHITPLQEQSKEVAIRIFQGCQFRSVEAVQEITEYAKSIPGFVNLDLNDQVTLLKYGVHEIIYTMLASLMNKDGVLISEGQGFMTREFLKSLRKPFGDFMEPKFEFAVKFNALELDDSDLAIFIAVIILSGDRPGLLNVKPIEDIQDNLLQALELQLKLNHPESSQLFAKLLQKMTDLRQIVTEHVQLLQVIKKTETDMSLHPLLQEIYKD
Description: The in vitro competition binding assays was performed using PolarScreen™ PPARγ-Competitor Assay Kit according to the manufacturer's instructions. Briefly, compounds at 2-fold titration serial concentrations were incubated with GST-tagged PPARγ ligand-binding domain (LBD, 34 nM) and Fluormone PPAR Green tracer (9 nM) for 4 hours in the dark at room temperature in a black 384-well assay plate (Corning Glass cat. no. 677). The florescence polarization value (mP) was measured at 485 nm (excitation) and at 535 nm (emission) using a microplate reader.

[2] = tested on: 3T3-L1 cells; assay: 3T3-L1 adipocyte differentiation (Oil Red O staining, adipogenic gene mRNA); type: cell-based, mouse
Description: 3T3-L1 preadipocytes were differentiated. In brief, cells at around 60%-70% confluence were induced for differentiation with DMEM containing 10% FBS, 1 μg/ml insulin, 1 μM dexamethasone, and 0.5 mM IBMX for 48 h in the presence or absence of compounds and were then exposed in maintenance medium (1 μg/mL insulin in 10% FBS/DMEM) containing compounds. The medium was renewed every 2 days for total 8 days of differentiation when the cells became differentiated and lipid droplets were apparent. For primary preadipocyte differentiation, isolation of primary preadipocytes was performed. Briefly, fat depots were digested in PBS containing collagenase D (1.5 U/ml) at 37° C. for 40-45 min. The primary cells were filtered through 70 μm cell strainer and centrifuge at 700 g to collect stromal vascular fraction (SVF). The SVF cell pellets were plated on collagen coated plates. […]
(§1) Total RNA (2 μg) was isolated from tissues or cells using TRIzol reagents (Life Technologies) and reverse transcribed using oligo d(T) primers (New England Biosystems) and SuperScript IV reverse transcription kit (Applied Biosystems). qPCR was performed in a CFX96 Touch Real-Time PCR detection system using SYBR Green mix (Applied Biosystems). […] Relative mRNA expression was determined by the ΔΔCt method normalized to TBP mRNA. […]

[3] = tested on: diet-induced obesity (DIO) mice; assay: Body weight, body composition and indirect calorimetry in DIO mice; type: in vivo, mouse
Description: (§2) C57BL/6J male mice were obtained from Jackson laboratory (Bar Harbor, ME) and maintained on a 12 h light (6:00 AM to 6:00 PM)—12 h dark (6:00 PM to 6:00 AM) cycle at an ambient temperature of 22±1° C. All animals had access to diet and water ad libitum. All procedures involving animals were approved by the Institutional Animal Care and Use Committee of the University of Oklahoma Health Science Center. All experiments were performed with age-matched male mice. The mice were fed a high-fat diet (HFD) (60% kcal fat, Bio-Serv, NJ, USA) starting from the age of 6 weeks until study end. […] Food intake was determined manually by measuring the amount of input food subtracting the amount of the food remaining in the food hopper and the crumbs on the bedding of the cage each day for three days during the 4th week of the treatment. Packed cell volume (PCV) was measured with blood drawn from tail on a LW Scientific E8 centrifuge (LW Scientific, Lawrenceville, Georgia, USA) microhematocrit centrifuge at the end of study. For all other measurements, the blood was drawn at the time of euthanization.
Body lean and fat composition was determined by EchoMRI test.
The mice were individually housed in chambers of a Promethion Core Monitoring system (Sable Systems, Las Vegas, NV, USA). After a 1-day acclimation period, their oxygen consumption and carbon dioxide production were measured for the next three consecutive days. The respiratory exchange ratio and energy expenditure were calculated using standard equations

[4] = tested on: liver of DIO mice; assay: Liver steatosis in DIO mice (H&E histology, qRT-PCR); type: in vivo, mouse; details: vs vehicle
Description: as §2
Liver, heart, bone, adipose tissues were dissected and immediately fixed in 4% paraformaldehyde (Sigma-Aldrich), paraffin embedded, and stained with hematoxylin and eosin. For Immunofluorescence staining, the eWAT and iWAT paraffin sections were incubated with primary antibody (rabbit polyclonal to F4/80 [1:500, Cat #: 70076], Cell Signaling Technology) overnight at 4° C. after deparaffinization. […]
as §1

IC50 fold lower than that of UHC1 ([1]; WO95E vs UHC1): approximately 70 fold | IC50 ([1]; competition with Fluormone PPAR Green tracer, GST-PPARγ LBD 34 nM, read-out: half-maximum inhibitory concentration (IC50), binding to PPARγ LBD): ~11 nM
Compound: Cc1c(C)n(Cc2ccc(-c3ccccc3C(=O)O)cc2)c2ccc(C(=O)NCc3cccc(O)c3)cc12 [WO95E, 4′-((5-((3-hydroxybenzyl)carbamoyl)-2,3-dimethyl-1H-indol-1-yl)methyl)-[1,1′-biphenyl]-2-carboxylic acid]
mRNA levels of adipogenic genes PPARγ, FABP4, Glut4, PEPCK, C/EBPa ([2]; 3T3-L1, compounds at 10 μM, qRT-PCR): only minimally or moderately increased | Oil Red O staining / adipocyte differentiation ([2]; 3T3-L1, differentiation media, compounds at 10 μM): only marginally increased Oil Red O staining level | body weight ([3]; DIO mice on HFD, 15 mg/kg i.p. daily 4 weeks): reduced body weight | fat mass (EchoMRI) ([3]; DIO mice, 15 mg/kg i.p. daily): significant decrease | lean mass (EchoMRI) ([3]; DIO mice, 15 mg/kg i.p. daily): no noticeable change | daily food intake ([3]; DIO mice, 4th week of treatment, vs vehicle): same amount of daily food intake | average oxygen consumption (VO2) ([3]; DIO mice, indirect calorimetry after 4-week treatment): higher | mean energy expenditure ([3]; DIO mice, indirect calorimetry, vs vehicle): significantly heightened | average carbon dioxide production (VCO2) ([3]; DIO mice, indirect calorimetry, p value 0.08 for daytime): increased | respiratory exchange ratio (RER) ([3]; DIO mice, vs vehicle, data not shown): similar | overall activity (distance) ([3]; DIO mice, difference statistically insignificant): upward trend | number of lipid droplets in the liver ([4]; H&E): markedly reduced | expression levels of PEPCK and G6PC in liver [4]: significantly decreased | lipogenic genes FASN, SCD-1, ACC in liver [4]: down-regulated
